How the values were obtained:
CTSC in U937 cells = CTSC in U937 cells (Homo sapiens (Human), UniProt P53634); test: Intracellular CTSC inhibition assay (in vitro), LLOMe-induced cell death in U937 cells; format: cell-based; settings: 3 hours culture, CellTiter-Glo
Experimental: 2. Intracellular CTSC Inhibition Assay (In Vitro)
A test specimen was evaluated by a degree of cell death in a case where a substrate LLOMe (L-Leucyl-L-Leucine methyl ester, hydrobromide salt, Sigma, 555045152) was added to U937 cells. The LLOMe is taken up into the cells by endocytosis and cleaved by CTSC. A product thereof induces lysosomal damage in cells and causes cell death in leukocytes and the like. Therefore, since the degree of cell death correlates with an amount of degradation of LLOMe, that is, with CTSC activity, by quantitatively analyzing the cell death, CTSC inhibitory activity of the test specimen in the cell was determined. CTSC inhibition assay was performed using a polystyrene-made white 384 well plate.
As the test specimen, a stock solution dissolved in DMSO was prepared so as to be 0.2 mmol/L, and in a case where a solution in which the stock solution was diluted 50-fold with a RPMI-1640 medium including 10% FBS was used as the maximum evaluation concentration (4000 nmol/L), a serially diluted solution was prepared by diluting the solution 3-fold with the medium. Thereafter, a 4-fold concentrated test specimen solution with the target final concentration was prepared.
U937 cells were cultured in a RPMI-1640 medium including 10% FBS, and diluted to prepare 90,000 cells/mL of cell suspension on the day of assay. 10 μL of the cell suspension was seeded per well. Next, 10 μL of the test specimen solution having a concentration 4 times the target final concentration was added thereto, and the mixture was allowed to stand for 30 minutes. Thereafter, 20 μL of a 300 μmol/L LLOMe solution dissolved in a RPMI-1640 medium including 10% FBS was added thereto, and the cells were cultured for 3 hours. After completion of the culture, 40 μL of CellTiter-Glo (registered trademark) reagent (Promega, G7570) was added to each well and mixed. After 15 minutes, 20 μL of the reaction solution in each well was transferred to a white 384 well plate, and a chemiluminescence intensity was measured with a plate reader. A 4-parameter regression analysis was performed with GraphPad Prism (manufactured by GraphPad Software) from a plot of the luminescence intensity and the sample concentration, and an IC50 value was calculated.
Results of test compounds of Formula (1) are shown in Table 2 as IC50 (nM) values for which 50% inhibition concentration is calculated based on CTSC inhibition (%). In the table, Ex indicates an example number.

human recombinant CTSC = human recombinant CTSC (Homo sapiens (Human), UniProt P53634); test: CTSC inhibition assay (in vitro), fluorescent substrate GF-AFC; format: biochemical; settings: 30 μmol/L GF-AFC, pH 5.0, 25° C.
Experimental: 1. CTSC Inhibition Assay (In Vitro)
A test specimen was evaluated by a CTSC inhibition assay using a fluorescent substrate GF-AFC (Gly-Phe-7-Amino-4-trifluoromethylcoumarin, MP Biomedical, 03AFC03325). Since the GF-AFC is converted by CTSC to aminotrifluoromethylcoumarin having a specific fluorescence wavelength and the produced amount is proportional to CTSC activity, quantitative analysis was performed by measuring a fluorescence intensity with a plate reader. CTSC inhibition assay for each compound was performed using a polystyrene-made non-adhesive surface-treated black 384 well plate under the following conditions.
A human recombinant CTSC (R&D systems, 1071-CY) was dissolved in a CTSC active cocktail (20 ng/mL of human recombinant cathepsin L (R&D systems, 952-CY, 25 mmol/L MES/NaOH (pH: 6.0), 5 mmol/L dithiothreitol (DTT)) so as to be 100 ng/mL and incubated at 18° C. for 30 minutes. The solution was diluted with a CTSC assay buffer (50 mmol/L MES/NaOH (pH: 5.0), 50 mmol/L NaCl, 0.001% Triton X-100, mmol/L DTT) so as to be 2 ng/mL in a case of performing CTSC inhibition assay.
The test specimen was dissolved in dimethylsulfoxide (DMSO) at 10 mmol/L to prepare a stock solution. In a case where a solution in which the stock solution was diluted 15-fold with DMSO was used as the maximum evaluation concentration (0.667 mmol/L), 5-fold dilution was repeated in DMSO from the solution to prepare a serially diluted solution. 248.8 μL of the CTSC assay buffer was added to 1.12 μL of the serially diluted sample prepared in the DMSO to prepare a solution of a CTSC inhibition assay compound.
The final composition of the CTSC inhibition assay mixture was 0.66 ng/mL activated CTSC, 50 mmol/L MES/NaOH (pH: 5.0), 50 mmol/L NaCl, 0.001% Triton X-100, 5 mmol/L DTT, 30 μmol/L GF-AFC, and 0.15% DMSO, and the procedure was as follows. That is, 4 μL of the compound solution and 4 μL of the 2 ng/mL activated CTSC solution were mixed with each other in a 384 well plate and incubated at 25° C. for 30 minutes. Thereafter, 4 μL of the GF-AFC solution dissolved in the CTSC assay buffer was added to the mixture so as to be 90 μmol/L. After mixing to be uniform, a fluorescence emission intensity at 505 nm in a case of being excited at 390 nm after incubating at 25° C. for 1 hour was measured with a plate reader. A 4-parameter regression analysis was performed with GraphPad Prism (manufactured by GraphPad Software) from a plot of the fluorescence intensity at 505 nm and the sample concentration, and an IC50 value was calculated.
Results of test compounds of Formula (I) are shown in Table 1 as IC50 (nM) values for which 50% inhibition concentration is calculated based on CTSC inhibition (%). In the table, Ex indicates an example number.

Sequence of CTSC in U937 cells (P53634 25-463): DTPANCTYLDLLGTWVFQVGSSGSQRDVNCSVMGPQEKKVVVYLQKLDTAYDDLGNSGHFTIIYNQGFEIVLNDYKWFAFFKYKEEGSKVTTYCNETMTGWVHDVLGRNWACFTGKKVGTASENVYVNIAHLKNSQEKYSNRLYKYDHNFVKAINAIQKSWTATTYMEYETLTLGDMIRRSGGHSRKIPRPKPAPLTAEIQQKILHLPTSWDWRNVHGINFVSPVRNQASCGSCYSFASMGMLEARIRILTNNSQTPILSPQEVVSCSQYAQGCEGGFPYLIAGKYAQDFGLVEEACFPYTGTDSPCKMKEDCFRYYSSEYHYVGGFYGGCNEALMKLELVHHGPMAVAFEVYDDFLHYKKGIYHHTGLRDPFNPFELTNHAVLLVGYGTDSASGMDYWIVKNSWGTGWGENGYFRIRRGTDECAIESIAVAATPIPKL
Sequence of human recombinant CTSC (P53634 25-134): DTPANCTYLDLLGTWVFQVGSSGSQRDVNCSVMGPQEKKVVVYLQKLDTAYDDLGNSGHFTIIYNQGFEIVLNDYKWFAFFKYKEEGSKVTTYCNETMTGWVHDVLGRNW
Sequence of human recombinant CTSC (P53634 231-394): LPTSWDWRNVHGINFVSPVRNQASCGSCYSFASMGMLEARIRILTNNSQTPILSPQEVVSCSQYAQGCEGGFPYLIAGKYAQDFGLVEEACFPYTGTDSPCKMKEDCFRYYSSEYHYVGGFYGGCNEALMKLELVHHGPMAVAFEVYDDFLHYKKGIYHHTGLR
Sequence of human recombinant CTSC (P53634 395-463): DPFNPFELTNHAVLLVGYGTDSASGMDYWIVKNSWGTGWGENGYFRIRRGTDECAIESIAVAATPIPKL

Compound | IC50 (human recombinant CTSC) [nM] | IC50 (CTSC in U937 cells) [nM]
CC(C)C1(c2noc(C3CCC(F)(F)CC3)n2)CCN(C(=O)[C@@H]2C[C@H](S(C)(=O)=O)CN2)CC1 [Example 30] | > 1000 | > 1000
CC(C)C1(c2noc(C3CCC(F)(F)CC3)n2)CCN(C(=O)[C@H]2N[C@@H]3CC[C@H]2C3)CC1 [Example 26] | > 200 | 474
CN(C1(c2nc(C3CC(F)(F)C3)no2)CCN(C(=O)[C@@H]2C[C@@H](O)C3(CCC3)CN2)CC1)S(C)(=O)=O [Example 78] | 5.68 | 129
CC1CC[C@@H](C(=O)N2CCC(c3noc(C4CCC(F)(F)CC4)n3)(C(C)C)CC2)NC1 (stereo partly shown) [Example 43] | > 100 | 57.3
O=C([C@@H]1CC[C@@]2(CCO2)CN1)N1CCC(c2noc(C3CCC(F)(F)CC3)n2)(C(F)(F)F)CC1 [Example 73] | 3.28 | 4.05
CC(C)C1(c2noc(C3CCC(F)(F)CC3)n2)CCN(C(=O)C2CCC(C)(C)CN2)CC1 (stereo not shown) [Example 41] | 18.5 | 6.95
CC(C)C1(c2nc(C3CC(F)(F)C3)no2)CN(C(=O)[C@@H]2C[C@@H](O)C3(CCC3)CN2)C1 [Example 18] | 3.12 | 2.33
CC(C)C1(c2noc(C3CCC3)n2)CCN(C(=O)[C@@H]2C[C@@H](O)C3(CCC3)CN2)CC1 [Example 58] | 2.55 | 0.56

These reach a lower IC50 (human recombinant CTSC). Values come first.

IC50 (human recombinant CTSC) [nM] | Compound | IC50 (CTSC in U937 cells) [nM]
1.93 | O=C([C@@H]1C[C@@H](O)C2(CCC2)CN1)N1CCC(c2nccc(-c3ccc(F)cc3)n2)CC1 [Example 101] | 0.96
1.9 | CC(C)C1(C(=O)NC2CCC(F)(F)CC2)CN(C(=O)[C@@H]2C[C@@H](O)C3(CCC3)CN2)C1 [Example 15] | 791
1.63 | CC(C)C1(c2nc(C3CC(F)(F)C3)no2)CCN(C(=O)[C@@H]2C[C@@H](O)C3(CCC3)CN2)CC1 [Example 1, (4-(3-(3,3-Difluorocyclobutyl)-1,2,4-oxadiazol-5-yl)-4-isopropylpiperidin-1-yl)((7S,9R)-9-hydroxy-6-azaspiro[3.5]nonan-7-yl)methanone] | 0.49
1.53 | O=C([C@@H]1C[C@@H](O)C2(CCC2)CN1)N1CCC(c2noc(C3CCC(F)(F)CO3)n2)(C(F)(F)F)CC1 (stereo partly drawn) [Example 50, (4-(5-(5,5-difluorotetrahydro-2H-pyran-2-yl)-1,2,4-oxadiazol-3-yl)-4-(trifluoromethyl)piperidin-1-yl)((7S,9R)-9-hydroxy-6-azaspiro[3.5]nonan-7-yl)methanone] | 0.8
1.47 | Cc1ccc(C2(c3nc(C4CC(F)(F)C4)no3)CCN(C(=O)[C@@H]3C[C@@H](O)C4(CCC4)CN3)CC2)cc1 [Example 83] | 0.23
1.46 | O=C([C@@H]1C[C@@H](O)C2(CCC2)CN1)N1CCC(n2nnc(-c3ccc(F)cc3F)n2)CC1 [Example 104] | 0.61
1.01 | CC(C)C1(C(=O)N(C)CC2CCC(F)(F)CC2)CN(C(=O)[C@@H]2C[C@@H](O)C3(CCC3)CN2)C1 [Example 17] | 21.4
0.93 | CC(C)C1(c2noc(C3CCC(F)(F)CC3)n2)CCN(C(=O)[C@@H]2C[C@@H](O)C3(CCC3)CN2)CC1 [Example 82] | 0.25
0.24 | CC(C)C1(C(=O)NCC2CCC(F)(F)CC2)CN(C(=O)[C@@H]2CC[C@@]3(CCO3)CN2)C1 [Example 27] | 133

— patent US12522593B2, “Azacycloalkyl carbonyl cyclic amine compound” (Alivexis, Inc., priority 2022, dated 2026)
